# Experimental data as given in the OligoGym collection.
# These antisense oligonucleotides have a phosphorothioate backbone; sugars and methylation of C are not fully specified.
# Biological target: BIRC5
# Settings: ASO
# Also: test concentration or dose not given here.
row,Sequence,remaining target (mRNA or protein) (fraction of control)
1,AAAAGGAGTATCTGCCAG,0.61
2,AAAGAGAGAGAGAGAGAG,0.82
3,AAGCAGCCACTGTTACCA,0.36
4,ACAGGAAGGCTGGTGGCA,0.3
5,ACAGGCAGAAGCACCTCT,≥ 1
6,ACAGTTGAAACATCTAAT,≥ 1
7,ACTGTGGAAGGCTCTGCC,≥ 1
8,AGGACTGTGACAGCCTCA,0.38
9,AGGGACACTGCCTTCTTC,0.57
10,ATGACAGGGAGGAGGGCG,≥ 1
11,ATTCTCTAATCACACACA,0.74
12,CAAGTCTGGCTCGTTCTC,≥ 1
13,CCACGCGAACAAAGCTGT,0.38
14,CCGTGTGGAGAACGTGAC,0.78
15,CCTCTGCCAACGGGTCCC,0.96
16,CCTGGAAGTGGTGCAGCC,0.84
17,CGATGGCACGGCGCACTT,0.28
18,CTGTCTCCTCATCCACCT,0.59
19,CTTTCAAGACAAAACAGG,≥ 1
20,GACTTAGAATGGCTTTGT,0.63
21,GAGGAGCGGCCAGCATGT,0.53
22,GCCGAGATGACCTCCAGA,0.34
23,GCGATTCAAATCTGGCGG,≥ 1
24,GCTTCTTGACAGAAAGGA,0.65
25,GGCGCAGCCCTCCAAGAA,0.62
26,GGCTGACAGACACACGGC,0.59
27,GGTCGTCATCTGGCTCCC,0.64

# Biological target: RELA
# Settings: ASO
row,Sequence,remaining target (mRNA or protein) (fraction of control)
1,AAAGGAGCCTCGGGCCTC,0.37
2,ACCTGGAAGCAGAGCCGC,0.31
3,AGAGCCGCACAGCATTCA,0.46
4,AGCCTGGTCCCGTGAAAT,0.5
5,AGCTGAGCTGCGGGAAGG,0.86
6,AGGTATGCCCTGGTTCAG,0.61
7,ATGAGGAAGGACAGGCGG,≥ 1
8,ATGCGTCGAGGTGGAGGC,0.6
9,ATGGAGGAGAAGTCTTCA,≥ 1
10,ATGGGTCCCGCACTGTCA,0.38
11,CAAAGATGGGATGAGGAA,≥ 1
12,CAATGTCCTCTTTCTGCA,0.78
13,CAGGTCCCGCTTCTTCAC,0.33
14,CCTGGTCCTGTGTAGCCA,0.78
15,CGTAGTCCCCACGCTGCT,0.29
16,CTCAATGATCTCCACATA,≥ 1
17,CTCATAGAAGCCATCCCG,0.69
18,CTGCCGGGAAGATGAGGG,0.84
19,GACAGCGTTCCTTCCCCA,≥ 1
20,GACGAGCCATTCGCCGGA,0.52

row,Sequence,remaining target (mRNA or protein) (fraction of control)
1,GATCTGACTCAGCAGGGC,0.27
2,GCACATCAGCTTGCGAAA,≥ 1
3,GCACTTGTAGCGGAAGCG,≥ 1
4,GCAGTCCTTTCCTACAAG,0.95
5,GCCGGTGAGGAGGGTCCT,0.71
6,GCTCAGGGATGACGTAAA,0.45
7,GGATGCGCTGACTGATAG,0.31
8,GTCTGTGCTGTTGCCAAG,0.87
9,GTTGTTGGTCTGGATGCG,0.63
10,TAGCCATTGATCTTGATG,0.78
11,TCACACACTGGATTCCCA,0.81
12,TCACACAGTAGGAAGATC,0.74
13,TCACTAGGCGAGTTATAG,0.53
14,TCTGGAAACTGTGGATGC,≥ 1
15,TGCCCAGAAGGAAACACC,0.66
16,TGTATCTGGCAGGTACTG,≥ 1
17,TGTCCTTTTACGTTTCTC,0.74
18,TTCGGTTCACTCGGCAGA,≥ 1
19,TTCTGCACCTTGTCACAC,0.37
20,TTGGTGGTATCTGTGCTC,0.53

# Biological target: GNAI3
# Settings: ASO
row,Sequence,remaining target (mRNA or protein) (fraction of control)
1,ACTCCACACTGTAGTAAC,0.45
2,AGAGAATGATTGAAGTTT,0.99
